Laboratory results reported in patent publication US7498336B2, “Deazaflavin compounds and methods of use thereof” (The United States of America as represented by the …, priority 2003, dated 2009).

Legend:
[1] = system: Normal human fibroblast MRC-5; test: Cell based assay for accumulation of MDM2 and p53 (immunoblot); conditions: MRC-5 cells, 50 μM, 8 hours
Procedure: Methods: Normal human fibroblast MRC-5 were chosen to determine whether the compounds from the high throughput screening can inhibit the E3 activity of Mdm2, i.e. stabilizing MDM2 and p53 in vivo. After being seeded in 12-well tissue culture cluster overnight, the cells were treated with 50 μM of the compounds for 8 hours. They were harvested with trypsin-EDTA, washed with PBS, and lysed with RIPA buffer. Following removal of insoluble pellet by centrifugation for 20 minutes at 10000 rpm, the lysate was separated on 4-20% gradient SDS-polyacrylamide gel and transferred onto nitrocellulose membrane. The membrane was then blotted with anti-p53 antibody (DO-1), anti-MDM2 antibodies (Ab-1 and Ab-2), anti-p27 (Santa Cruz), anti-Nedd4, and anti-p21Waf1 antibody. After extensive washing with PBS containing 0.5% Triton X-100, it was incubated with HRP-labeled donkey anti-mouse antibody and visualized using enhanced chemiluminescence.

rabbit E1 = molecular target: T1, rabbit E1 (Oryctolagus cuniculus, UniProt Q29504); test: E1 only assay (thiol-ester linkage of ubiquitin with E1); type: biochemical; conditions: FIG. 2D
T1 construct: purchased Calbiochem 6620700
T1 sequence (Q29504 1-1058): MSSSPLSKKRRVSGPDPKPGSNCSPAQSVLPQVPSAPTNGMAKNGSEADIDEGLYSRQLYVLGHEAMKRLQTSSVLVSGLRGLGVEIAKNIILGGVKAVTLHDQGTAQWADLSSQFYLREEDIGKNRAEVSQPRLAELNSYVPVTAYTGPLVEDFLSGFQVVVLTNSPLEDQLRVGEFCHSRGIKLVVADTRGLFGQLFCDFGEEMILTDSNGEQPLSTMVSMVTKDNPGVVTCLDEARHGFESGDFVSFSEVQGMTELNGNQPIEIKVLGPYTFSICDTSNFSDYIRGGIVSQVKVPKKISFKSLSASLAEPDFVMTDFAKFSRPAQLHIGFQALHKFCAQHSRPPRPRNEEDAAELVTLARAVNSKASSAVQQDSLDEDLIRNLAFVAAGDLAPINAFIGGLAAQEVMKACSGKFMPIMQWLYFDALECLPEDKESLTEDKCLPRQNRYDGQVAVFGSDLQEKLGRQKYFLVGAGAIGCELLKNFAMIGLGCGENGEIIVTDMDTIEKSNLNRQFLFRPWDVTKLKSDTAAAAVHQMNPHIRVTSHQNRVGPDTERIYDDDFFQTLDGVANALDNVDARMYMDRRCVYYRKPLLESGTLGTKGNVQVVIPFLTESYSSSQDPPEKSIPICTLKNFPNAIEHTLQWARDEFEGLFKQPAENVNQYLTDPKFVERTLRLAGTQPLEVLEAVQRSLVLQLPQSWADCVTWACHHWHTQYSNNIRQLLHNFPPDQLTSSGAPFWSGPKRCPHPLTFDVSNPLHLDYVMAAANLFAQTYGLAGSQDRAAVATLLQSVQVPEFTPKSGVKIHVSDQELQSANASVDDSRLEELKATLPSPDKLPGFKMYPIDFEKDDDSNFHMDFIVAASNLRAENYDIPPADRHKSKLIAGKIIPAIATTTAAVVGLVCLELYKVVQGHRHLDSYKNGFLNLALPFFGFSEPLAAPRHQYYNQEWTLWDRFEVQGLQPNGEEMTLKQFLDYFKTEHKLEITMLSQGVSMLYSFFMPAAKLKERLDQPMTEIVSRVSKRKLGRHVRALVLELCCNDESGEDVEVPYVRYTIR
Procedure: 2 μl rabbit E1 +12 μl of 1× reaction buffer are mixed together with the test compound followed by addition of 1 μl of ^32P Ub is added for 10 minutes at room temperature followed by resolution by SDS-PAGE under non-reducing conditions to maintain thiol-ester linkages and exposure as above.

In the case of `O=c1nc2n(-c3cccc(Cl)c3)c3ccc([N+](=O)[O-])cc3cc-2c(=O)[nH]1` [Compound 98C07, 10-(-3-chloro-phenyl)-7-nitro-10H-pyrimido[4,5-b]quinoline-2,4-dione], the MDM2 level [1] is reported as “specifically increase MDM2 and p53”, the p53 level [1] is reported as “specifically increase MDM2 and p53” and the “inhibition of thiol-ester linkage of ubiquitin with E1” value (rabbit E1) is reported as “inhibits neither thiol-ester linkages of ubiquitin with E1 nor E2”.
